Laboratory results reported in patent US20130303378A1, “Biocide Compositions Comprising Esters Of Ethoxylated Alcohols” (priority 2010, published 2013).

Assays:
[1] = tested on: barley powdery mildew (Blumeria graminis f. sp. hordei); assay: Curative greenhouse trial with Opus SC125 plus adjuvant against barley powdery mildew; assay type: in vivo, Blumeria graminis f. sp. hordei on barley; details: Opus 10 g/ha, adjuvant 50 ml/ha, inoculation 2 days prior to application, assessment 14 DAT, mildew pustules per leaf
Description: Opus SC125, a commercial available pesticide sold by BASF, was tested to control barley powdery mildew (BPM) in a curative greenhouse trial, Azoxystrobin SC 250 in a protective trial. In each case, barley was cultivated in a substrate “Frustorder Erde” for three weeks. Each treatment was replicated 14 times. The adjuvant dose rate in each treatment was 50 ml/ha.
Inoculation of the leaves with powdery mildew (Blumeria graminis f. sp. hordei) was done 2 days prior to application to test Opus' curative action. From the stem, leaf segments were cut off with a length of 10 cm using the flag leaf (F) and 2nd leaf (F-1). Altogether, the leaves of each stem were placed on benzimidazol agar i.e. 0.5% Agar with 40 ppm benzimidazol. The concentration of Opus for the leaf application was 10 g/ha. Assessment 14 days after treatment (14 DAT) of the efficacy against powdery mildew was done by counting the mildew pustules per leaf on a length of 7 cm. The assessment of the infection rate was conducted by a trained biologist.

barley powdery mildew [2] = assay: Protective greenhouse trial with Amistar (Azoxystrobin SC 250) plus adjuvant against barley powdery mildew; assay type: in vivo, barley powdery mildew on barley; details: azoxystrobin 5 g/ha, adjuvant 50 ml/ha, leaf segments cut 5 h after application, incubation 10 d after inoculation
Description: Opus SC125, a commercial available pesticide sold by BASF, was tested to control barley powdery mildew (BPM) in a curative greenhouse trial, Azoxystrobin SC 250 in a protective trial. In each case, barley was cultivated in a substrate “Frustorder Erde” for three weeks. Each treatment was replicated 14 times. The adjuvant dose rate in each treatment was 50 ml/ha. 5 h after application with the equivalent of 5 g/ha azoxystrobin, leaf segments were cut off at a length of 7 cm from the stem. The leaves of the F and F-1 leaf were placed on agar. After the inoculation, the incubation time was 10 d. The assessment of the infection rate was conducted by a trained biologist.

barley powdery mildew [3] = assay: Performance in both trials together (curative Opus and protective Amistar); assay type: in vivo, barley powdery mildew on barley; details: for Sum of infection rates: sum of OPUS and AMISTAR infection rates; for adjuvancy effect considering the performance in both trials: assessment in words, Opus and Amistar trials
Description: Opus SC125, a commercial available pesticide sold by BASF, was tested to control barley powdery mildew (BPM) in a curative greenhouse trial, Azoxystrobin SC 250 in a protective trial. In each case, barley was cultivated in a substrate “Frustorder Erde” for three weeks. Each treatment was replicated 14 times. The adjuvant dose rate in each treatment was 50 ml/ha. Inoculation of the leaves with powdery mildew (Blumeria graminis f. sp. hordei) was done 2 days prior to application to test Opus' curative action. From the stem, leaf segments were cut off with a length of 10 cm using the flag leaf (F) and 2nd leaf (F-1). Altogether, the leaves of each stem were placed on benzimidazol agar i.e. 0.5% Agar with 40 ppm benzimidazol. The concentration of Opus for the leaf application was 10 g/ha. […] The assessment of the infection rate was conducted by a trained biologist. 5 h after application with the equivalent of 5 g/ha azoxystrobin, leaf segments were cut off at a length of 7 cm from the stem. The leaves of the F and F-1 leaf were placed on agar. After the inoculation, the incubation time was 10 d. The assessment of the infection rate was conducted by a trained biologist.

| Substance | Infection rate of barley powdery mildew after treatment with fungicides, OPUS [1] [%] | Infection rate of barley powdery mildew after treatment with fungicides, AMISTAR (barley powdery mildew [2]) [%] | Sum of infection rates (barley powdery mildew [3]) [%] | adjuvancy effect considering the performance in both trials (barley powdery mildew [3]) |
| --- | --- | --- | --- | --- |
| C12/14 + 20EO-C8/10 Ester [Example C4] | 15 | 18 | 33 |  |
| Isodecyl + 6EO-C8/10 Ester [Example C1] | 21 | 5 | 26 |  |
| Isoamyl + 10EO laurate [Example 3] | 4 | 14 | 18 |  |
| Decyl + 20EO-C8/10 Ester [Example 5] | 11 | 12 | 23 |  |
| Isoamyl + 20EO laurate [Example 2] | 12 | 0 | 12 |  |
| Isoamyl + 20EO oleate [Example 1] | 7 | 0 | 7 | best adjuvancy effect |
| C12/14 + 10EO-C8/10 Ester [Example C3] | 29 | 2 | 31 |  |
| C12/14 + 5EO-C8/10 Ester [Example C2] | 24 | 3 | 27 |  |
| Decyl + 10EO-C8/10 Ester [Example 4] | 22 | 0 | 22 |  |
| Isoamyl + 5EO oleate [Example C5] | 17 | 17 | 34 | does not give acceptable results |
